From patent publication US20060286626A1, “Selective chromophores” (priority 2002, published 2006)
“Also recorded” adds a separate entry of the source.

What was measured:
Format in all cases: cell-based
[1] = tested on: sections of testis from rat; experiment: Fluorescent staining of testis sections from rat; details: for cells stained / affinity in testis: 15 minutes incubation, concentration not given; for concentration dependence of staining in testis: 0.05-50 μg/ml
Procedure: Testis tissues were obtained from a male Sprague-Dawley rat, which has been used as a control in another study. The tissues were fixed in 4% formaldehyde, imbedded in paraffin and sectioned into 4 μm thick slices before dewaxed and hydrated. Stock solutions containing 5 mg dye/ml DMSO and ethanol were made. These were diluted to 0.05, 0.5, 5, 10, and 50 μg/ml with water. At the time of the experiment, 100 μl from each solution was added to the sections, respectively. The sections were incubated for 15 minutes before the excess dye was removed by washing with water.
To se if and if so, the position of benzosuccinimidyl as a substituent alters the affinity of the dyes testis was stained with the two PASU dyes.
(§1) Fluorescence microscopic experiments were performed with a Zeizz (West Germany) microscope equipped with Plan Neofuar 40/0.9 I mm Ph3 and Plan Neofuar 25/0.8 W-Oel Ph2 objectives. A Winder M35 camera was used to obtain the microscopic images.

[2] = tested on: human cell line of fibro sarcom, HT80; experiment: Staining of human fibro sarcoma cells; details: live HT80 cells, 5 μg/ml, without Triton-x
Source text: The positively charged part of the molecule might bind to the anionic phosphate group of phospholipids present in the plasma membrane. Since the PASU dyes are uncharged and relatively small molecules they have the ability to pass through the outer layer of the cells. […] To answer the question of what the dyes have affinity for further investigations have to be performed. Furthermore the dyes can be used for detection of receptors of cells. […] By adding a substance that induce conformational changes of the receptor which result in that the dye fit to the receptor, or use a dye with a substituent that fit in the inactivated receptor, the targets, receptors, can be detected as small fluorescent particles, so called pits. Thus, the dyes can be used to detect receptors and follow conformational changes of the receptor, activation-inactivation of receptor.
The stock solutions of the dyes were diluted with PBS or PBS+Triton-x to 5 μg/ml when added to both fixed and unfixed mature fibro sarcoma cells, cell line HT 80. Due to lack of time only the live cells untreated with Triton-x are discussed in the result.

[3] = tested on: small intestine sections from rats; experiment: Fluorescent staining of small intestine sections from rat
Source text: Derivatives of Nile Red (FIG. 1) were synthesized and their staining of testis and small intestine sections from rats were studied. Nile Red is a member of benzophenoxazine compounds that provide a family of fluorescent dyes, which can be used, for labelling biological molecules in various applications. The phenoxazine dyes tend to have a large Stokes' shift of 80-100 nm. Nile Red is a highly fluorescent dye, which absorbs energy above 550 nm. Consequently it has mainly been used for lipid staining but also as a solvatrochromic probe to measure the solvent strength of several liquids.
as §1

| SMILES | cells stained / affinity in testis [1] | concentration dependence of staining in testis [1] | part of the cell stained [2] | also measured |
| --- | --- | --- | --- | --- |
| CN(C)c1ccc2nc3c4cc(OCCCN5C(=O)c6ccccc6C5=O)ccc4c(=O)cc-3oc2c1 [PASU-3, 3-[3-(9-Dimethylamino-5-oxo-5H-benzo[a]phenoxazine-2-yloxy)-propyl]-isoindole-1,3-dione] | stain different cells and parts of cells; also recorded: stains stem cells but not spermatides and spermatozoa | – | – | – |
| CN(C)c1ccc2nc3c4cc(OCCC[N+](C)(C)C)ccc4c(=O)cc-3oc2c1 [PATM-2, 9-Dimethylamino-2-(trimethylammonium-propoxy)-benzo[a]phenoxazin-5-one] | stains germ cells | no concentration dependence | stains the plasma membranes of the cells | permeability of the plasma membrane [2]: does not reach into the cytoplasm of the cells |
| CN(C)c1ccc2nc3c4cc(OCCCN)ccc4c(=O)cc-3oc2c1 [PA-2, 2-(3-Amino-propoxy)-9-dimethylamino-benzo[a]phenoxazine-5-one] | stains stem cells selectively; also recorded: stains stem cells and spermatocytes; also recorded: high affinity for stem cells and spermatocytes; also recorded: has affinity for stem cells at low concentrations | the concentration of the dye added to the tissue determined which cells that were stained | – | cells stained in testis ([1]; dye 0.05 μg/ml): only stem cells were stained; cells stained in testis ([1]; dye 0.5 μg/ml): germ cells and spermatides fluoresced as well; cells stained in testis ([1]; dye 10 μg/ml): spermatocytes were stained as well; structures stained in small intestine ([3]; slices of small intestine from rat): all nucleuses |
| CN(C)c1ccc2nc3c4cc(OCCCN5C(=O)c6ccccc6C5=O)ccc4c(=O)cc-3oc2c1 [PASU-2, 2-[3-(9-Dimethylamino-5-oxo-5H-benzo[a]phenoxazine-2-yloxy)-propyl]-isoindole-1,3-dione] | stains spermatides and spermatozoa; also recorded: stain different cells and parts of cells; also recorded: has preferences to sperms and spermatides; also recorded: binds to spermatides and spermatozoa | – | stains the cytoplasm but not the nucleus | concentration dependence of staining in small intestine ([3]; small intestine from rat): differs a lot with the concentration of dye |
| CN(C)c1ccc2nc3c4cc(OCCCN5C(=O)c6ccccc6C5=O)ccc4c(=O)cc-3oc2c1 [PASU-1, 1-[3-(9-Dimethylamino-5-oxo-5H-benzo[a]phenoxazine-2-yloxy)-propyl]-isoindole-1,3-dione] | does not have any affinity | – | – | – |
